Measured values from ChEMBL document CHEMBL1201862, “PubChem BioAssay data set” (2004).
Activity calls are given as the source filed them.

Experiments:
[1] = molecular target: Voltage-dependent T-type calcium channel subunit alpha-1H (Homo sapiens, UniProt O95180); type: functional;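 also: channel activity triggered by adding a high calcium stimulation buffer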
[2] = inhibitors of intracellular T. cruzi replication, confirmation, NIH3T3 host cells, beta-gal luminescence (AID 2044); type: functional, cell-based;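 also: intracellular parasites grown in NIH/3T3 mouse fibroblasts as host cells; luminescent beta-galactosidase reporter signal from transgenic T. cruzi replicating inside host cells; inhibitors lower the luminescence signal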
[3] = cytotoxicity toward NIH3T3 fibroblasts, dose response, counter-screen, cell-based, ATP luminescence, mouse fibroblasts (AID 2010); type: functional;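 also: cells exposed to compound for about 90 hours before reading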
[4] = THP-1 cell cytotoxicity, dose response, cytotoxicity control for non-replicating M. tuberculosis project (AID 489025); type: functional
[5] = HepG2 cell cytotoxicity, dose response, cytotoxicity control for non-replicating M. tuberculosis project (AID 489018); type: functional; conditions: Mycobacterium tuberculosis
cells = type: functional
[6] = molecular target: T1, Kappa-type opioid receptor (Homo sapiens, UniProt P41145); type: functional
INS1 = assay: beta cell apoptosis inhibitors, cytokine rescue, dose response, luminescence, retest (AID 449756); type: functional, cell-based; conditions: Rattus norvegicus, INS1;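 also: cell death triggered by IL-1 beta plus TNF-alpha plus IFN-gamma mixture; protective hits raise ATP signal compared with cytokine alone wells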
Beta-galactosidase = Beta-galactosidase (Escherichia coli, UniProt Q8VNN2); type: functional
[7] = inhibitors of SNCA 5'UTR-driven reporter translation, confirmation, H4 neuroglioma cells, luminescence (AID 1988); type: functional, cell-based
[8] = molecular target: T1, Kappa-type opioid receptor; type: functional; remark: listed apart in the source
[9] = Luminescence Cell-Based Dose Response HTS to Identify Inhibitors of 5'UTR Stem-Loop Driven Prion Protein mRNA Translation in H4 Neuroglioblastoma Cells. [Related pubchem assays: 1827 (Project Summary), 1813 (Primary HTS)]; type: functional
Coagulation factor XII = molecular target: T2, Coagulation factor XII (Homo sapiens, UniProt P00748); assay: FXIIa inhibitor potency, concentration-response, biochemical (AID 716); type: functional
T2 sequence (P00748 whole entry): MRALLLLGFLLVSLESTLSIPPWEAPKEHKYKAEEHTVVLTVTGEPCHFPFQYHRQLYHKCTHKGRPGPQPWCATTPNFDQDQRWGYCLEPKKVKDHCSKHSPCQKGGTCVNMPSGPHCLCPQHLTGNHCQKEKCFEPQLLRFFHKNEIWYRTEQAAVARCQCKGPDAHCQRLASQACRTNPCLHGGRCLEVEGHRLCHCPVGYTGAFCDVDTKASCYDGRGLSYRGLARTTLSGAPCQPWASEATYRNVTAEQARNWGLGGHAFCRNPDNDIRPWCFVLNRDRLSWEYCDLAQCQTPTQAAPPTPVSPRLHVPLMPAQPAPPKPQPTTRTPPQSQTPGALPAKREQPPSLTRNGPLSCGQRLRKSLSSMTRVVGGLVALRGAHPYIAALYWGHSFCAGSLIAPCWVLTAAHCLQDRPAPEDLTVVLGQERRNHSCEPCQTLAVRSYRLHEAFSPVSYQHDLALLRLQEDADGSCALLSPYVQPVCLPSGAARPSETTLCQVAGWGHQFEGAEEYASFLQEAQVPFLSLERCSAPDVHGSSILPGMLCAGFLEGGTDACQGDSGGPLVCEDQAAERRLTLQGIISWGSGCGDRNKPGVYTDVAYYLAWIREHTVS

Hexokinase HKDC1 = molecular target: T3, Hexokinase HKDC1 (Homo sapiens, UniProt Q2TB90); assay: HKDC1 hexokinase inhibitors, dose response, biochemical, W721R variant (AID 504729); type: functional
T3 sequence (Q2TB90 whole entry): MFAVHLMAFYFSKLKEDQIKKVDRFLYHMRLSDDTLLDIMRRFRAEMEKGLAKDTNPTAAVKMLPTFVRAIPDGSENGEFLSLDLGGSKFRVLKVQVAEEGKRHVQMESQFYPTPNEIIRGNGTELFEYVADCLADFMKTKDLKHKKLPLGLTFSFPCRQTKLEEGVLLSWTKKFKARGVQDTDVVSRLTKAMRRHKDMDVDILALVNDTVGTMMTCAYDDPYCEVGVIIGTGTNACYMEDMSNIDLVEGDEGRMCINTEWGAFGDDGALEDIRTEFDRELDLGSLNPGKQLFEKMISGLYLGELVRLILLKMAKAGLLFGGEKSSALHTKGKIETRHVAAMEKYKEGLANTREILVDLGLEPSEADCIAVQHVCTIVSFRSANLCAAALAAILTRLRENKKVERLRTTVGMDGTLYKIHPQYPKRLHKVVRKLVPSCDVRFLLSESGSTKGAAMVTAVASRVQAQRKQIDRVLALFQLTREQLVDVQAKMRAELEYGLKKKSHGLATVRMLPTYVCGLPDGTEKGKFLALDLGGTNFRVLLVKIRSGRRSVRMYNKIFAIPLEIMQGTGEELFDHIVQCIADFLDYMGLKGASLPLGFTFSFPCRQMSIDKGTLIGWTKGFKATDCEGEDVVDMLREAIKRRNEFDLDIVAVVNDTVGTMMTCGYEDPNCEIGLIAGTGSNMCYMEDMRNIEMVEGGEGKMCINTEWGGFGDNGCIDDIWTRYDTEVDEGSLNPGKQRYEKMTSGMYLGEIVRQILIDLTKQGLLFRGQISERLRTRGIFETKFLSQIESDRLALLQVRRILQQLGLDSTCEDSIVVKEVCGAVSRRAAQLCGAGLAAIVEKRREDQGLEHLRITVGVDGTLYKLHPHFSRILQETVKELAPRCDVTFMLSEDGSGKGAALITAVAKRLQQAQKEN

SUMO-activating enzyme [10] = molecular target: T4, SUMO-activating enzyme (Homo sapiens, UniProt Q9UBT2); assay: inhibitors of in vitro SUMOylation cascade, primary screen, biochemical, HTRF, uHTS (AID 2006); type: protein-complex assay
[11] = inhibitors of HIV Env-driven cell fusion, dose response, cherry-pick (AID 652057); type: functional, cell-based
Streptococcus = assay: Group A Streptococcus viability loss, dose response, counter-screen for streptokinase expression inhibitor project, luminescence, BacTiterGlo (AID 1915); type: functional, organism-based;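 also: potency for reduction of bacterial viability or growth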
SUMO-activating enzyme [12] = molecular target: T4, SUMO-activating enzyme; assay: SUMOylation inhibitor hit validation, confirmation, SUMOylation inhibitor project, biochemical, AlphaScreen (AID 2018); type: functional
[13] = inhibitors of clade B AD8 Env fusion, dose response, cell-based, cherry-pick (AID 652062); type: functional;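 also: luciferase signal from cell-cell fusion driven by HIV-1 clade B AD8 Env; potency is for inhibitors of fusion seen as a drop in luminescence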
[14] = tested on: Streptococcus sp. 'group A'; assay: growth inhibition of control SK(-) GAS strain, dose response, counter-screen for streptokinase expression inhibitor project, luminescence, kanamycin, BacTiterGlo, confirmation (AID 1900); type: functional, organism-based
[15] = inhibitors of firefly luciferase expression or activity, dose response, H4 neuroglioma cells, luminescence (AID 1990); type: functional, cell-based
[16] = off-target signal loss in HeLa-CEM21 co-culture – HeLa F-luc CTL cells, cherry-picked, counter-screen for HIV-1 Env fusion inhibitor project, dose response (AID 652040); type: functional, cell-based;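 also: potency for signal decrease marking cytotoxic or nonspecific inhibition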
[17] = ZM109 Env clade C HIV-1 fusion inhibitors, dose response, HeLa effector, CEM target cells, luciferase, cherry-pick (AID 652058); type: functional, cell-based
[18] = Luminescence Cell-Based Dose Confirmation HTS to Identify Inhibitors of Platelet Dense Granule Release. [Related pubchem assays: 1663 (Primary HTS), 1678 (Summary of Project)]; type: functional
[19] = molecular target: Intestinal-type alkaline phosphatase (Homo sapiens, UniProt P09923); assay: Dose Response confirmation of uHTS hits from a small molecule inhibitors of human intestinal alkaline phosphatase via a luminescent assay. [Related pubchem assays (depositor defined):AID2544, AID2574]; type: functional
[20] = molecular target: Luciferin 4-monooxygenase (Photinus pyralis, UniProt P08659); assay: firefly luciferase enzyme inhibitors, dose response, biochemical, luminescence (AID 1891)
[21] = molecular target: G-protein coupled receptor 55 (Homo sapiens, UniProt Q9Y2T6); assay: GPR55 antagonists blocking LPI-driven arrestin recruitment, primary screen, imaging, U2OS, beta-arrestin-GFP, LPI agonist (AID 2013); type: functional;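 also: antagonist potency measured as reduced agonist-driven arrestin aggregation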
[22] = molecular target: Lysosomal acid glucosylceramidase (Homo sapiens, UniProt P04062); assay: Dose response cell-based high throughput screening assay to identify enhancers of beta-glucosidase activity. [Related pubchem assays: 784 ]; type: functional
[23] = Luminescence Cell-Based Dose Retest to Confirm Inhibitors of Cancer Stem Cells. [Related pubchem assays (depositor defined):AID2717, AID2721]; type: functional; conditions: Homo sapiens
[24] = Luminescence Cell-Based Dose Response HTS to Identify Activators of Luciferase Translation or Activity in H4 […] Cells. [Related pubchem assays: 1829 (Project Summary), 1814 (Primary HTS)]; type: functional

T4 sequence (Q9UBE0 whole entry, the tested form may be a part): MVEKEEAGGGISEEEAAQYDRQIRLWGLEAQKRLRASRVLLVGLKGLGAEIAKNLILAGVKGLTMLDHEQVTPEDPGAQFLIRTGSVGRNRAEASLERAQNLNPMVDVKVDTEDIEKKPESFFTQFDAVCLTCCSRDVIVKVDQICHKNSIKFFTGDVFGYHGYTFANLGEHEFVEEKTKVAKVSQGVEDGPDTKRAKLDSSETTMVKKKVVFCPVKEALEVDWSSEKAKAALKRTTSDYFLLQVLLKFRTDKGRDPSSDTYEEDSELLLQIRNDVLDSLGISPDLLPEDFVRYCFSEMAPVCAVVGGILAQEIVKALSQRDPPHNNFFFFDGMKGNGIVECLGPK
T4 sequence (Q9UBT2 whole entry, the tested form may be a part): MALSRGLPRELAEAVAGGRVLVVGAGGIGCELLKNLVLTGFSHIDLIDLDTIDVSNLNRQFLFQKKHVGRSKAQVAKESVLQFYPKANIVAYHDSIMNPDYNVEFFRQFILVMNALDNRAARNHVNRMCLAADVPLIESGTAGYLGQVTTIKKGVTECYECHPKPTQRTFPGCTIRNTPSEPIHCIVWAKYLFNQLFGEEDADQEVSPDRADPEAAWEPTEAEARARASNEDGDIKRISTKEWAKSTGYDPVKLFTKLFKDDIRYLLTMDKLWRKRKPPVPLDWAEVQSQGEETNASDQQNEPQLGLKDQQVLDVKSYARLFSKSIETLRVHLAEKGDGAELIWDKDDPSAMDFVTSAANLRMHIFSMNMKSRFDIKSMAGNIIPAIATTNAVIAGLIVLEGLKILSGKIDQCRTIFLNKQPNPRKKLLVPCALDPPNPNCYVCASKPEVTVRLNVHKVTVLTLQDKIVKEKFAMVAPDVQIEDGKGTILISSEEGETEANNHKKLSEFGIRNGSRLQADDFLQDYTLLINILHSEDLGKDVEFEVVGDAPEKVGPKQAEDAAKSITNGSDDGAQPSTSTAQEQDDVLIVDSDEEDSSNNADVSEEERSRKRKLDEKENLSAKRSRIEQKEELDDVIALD
Intestinal-type alkaline phosphatase, sequence (P09923 whole entry): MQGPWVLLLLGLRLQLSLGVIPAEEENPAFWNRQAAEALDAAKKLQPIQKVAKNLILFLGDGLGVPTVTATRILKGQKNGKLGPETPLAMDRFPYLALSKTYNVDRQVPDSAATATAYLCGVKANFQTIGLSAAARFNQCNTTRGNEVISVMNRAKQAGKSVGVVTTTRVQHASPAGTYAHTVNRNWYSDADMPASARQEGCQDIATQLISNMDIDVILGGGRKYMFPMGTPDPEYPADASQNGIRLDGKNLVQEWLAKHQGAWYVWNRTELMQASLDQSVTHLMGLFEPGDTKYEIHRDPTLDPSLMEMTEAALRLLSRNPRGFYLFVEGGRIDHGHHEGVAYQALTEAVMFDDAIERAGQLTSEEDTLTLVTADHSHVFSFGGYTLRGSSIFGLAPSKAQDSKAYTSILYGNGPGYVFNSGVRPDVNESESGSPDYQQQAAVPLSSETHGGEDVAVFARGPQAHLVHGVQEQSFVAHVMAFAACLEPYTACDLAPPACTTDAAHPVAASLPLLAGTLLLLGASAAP
G-protein coupled receptor 55, sequence (Q9Y2T6 whole entry): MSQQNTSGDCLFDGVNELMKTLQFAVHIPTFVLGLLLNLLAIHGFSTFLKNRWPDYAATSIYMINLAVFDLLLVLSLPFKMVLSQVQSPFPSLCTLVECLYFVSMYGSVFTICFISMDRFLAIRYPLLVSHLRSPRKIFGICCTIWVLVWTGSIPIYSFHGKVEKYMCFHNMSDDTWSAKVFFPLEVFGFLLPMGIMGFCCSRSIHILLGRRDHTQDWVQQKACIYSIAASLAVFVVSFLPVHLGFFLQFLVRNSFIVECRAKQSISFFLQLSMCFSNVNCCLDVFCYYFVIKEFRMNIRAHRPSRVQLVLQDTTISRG
T1 sequence (P41145 whole entry): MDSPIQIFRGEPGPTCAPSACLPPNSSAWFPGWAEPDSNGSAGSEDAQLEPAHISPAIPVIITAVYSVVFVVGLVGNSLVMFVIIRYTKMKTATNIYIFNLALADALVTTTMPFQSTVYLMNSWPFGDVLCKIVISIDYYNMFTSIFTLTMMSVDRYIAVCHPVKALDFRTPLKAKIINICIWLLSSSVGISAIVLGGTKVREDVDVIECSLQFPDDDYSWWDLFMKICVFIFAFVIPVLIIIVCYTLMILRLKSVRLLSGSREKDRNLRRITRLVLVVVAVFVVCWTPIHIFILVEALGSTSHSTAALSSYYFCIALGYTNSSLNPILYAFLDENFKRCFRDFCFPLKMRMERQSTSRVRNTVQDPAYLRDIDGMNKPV
Voltage-dependent T-type calcium channel subunit alpha-1H, sequence (O95180 whole entry): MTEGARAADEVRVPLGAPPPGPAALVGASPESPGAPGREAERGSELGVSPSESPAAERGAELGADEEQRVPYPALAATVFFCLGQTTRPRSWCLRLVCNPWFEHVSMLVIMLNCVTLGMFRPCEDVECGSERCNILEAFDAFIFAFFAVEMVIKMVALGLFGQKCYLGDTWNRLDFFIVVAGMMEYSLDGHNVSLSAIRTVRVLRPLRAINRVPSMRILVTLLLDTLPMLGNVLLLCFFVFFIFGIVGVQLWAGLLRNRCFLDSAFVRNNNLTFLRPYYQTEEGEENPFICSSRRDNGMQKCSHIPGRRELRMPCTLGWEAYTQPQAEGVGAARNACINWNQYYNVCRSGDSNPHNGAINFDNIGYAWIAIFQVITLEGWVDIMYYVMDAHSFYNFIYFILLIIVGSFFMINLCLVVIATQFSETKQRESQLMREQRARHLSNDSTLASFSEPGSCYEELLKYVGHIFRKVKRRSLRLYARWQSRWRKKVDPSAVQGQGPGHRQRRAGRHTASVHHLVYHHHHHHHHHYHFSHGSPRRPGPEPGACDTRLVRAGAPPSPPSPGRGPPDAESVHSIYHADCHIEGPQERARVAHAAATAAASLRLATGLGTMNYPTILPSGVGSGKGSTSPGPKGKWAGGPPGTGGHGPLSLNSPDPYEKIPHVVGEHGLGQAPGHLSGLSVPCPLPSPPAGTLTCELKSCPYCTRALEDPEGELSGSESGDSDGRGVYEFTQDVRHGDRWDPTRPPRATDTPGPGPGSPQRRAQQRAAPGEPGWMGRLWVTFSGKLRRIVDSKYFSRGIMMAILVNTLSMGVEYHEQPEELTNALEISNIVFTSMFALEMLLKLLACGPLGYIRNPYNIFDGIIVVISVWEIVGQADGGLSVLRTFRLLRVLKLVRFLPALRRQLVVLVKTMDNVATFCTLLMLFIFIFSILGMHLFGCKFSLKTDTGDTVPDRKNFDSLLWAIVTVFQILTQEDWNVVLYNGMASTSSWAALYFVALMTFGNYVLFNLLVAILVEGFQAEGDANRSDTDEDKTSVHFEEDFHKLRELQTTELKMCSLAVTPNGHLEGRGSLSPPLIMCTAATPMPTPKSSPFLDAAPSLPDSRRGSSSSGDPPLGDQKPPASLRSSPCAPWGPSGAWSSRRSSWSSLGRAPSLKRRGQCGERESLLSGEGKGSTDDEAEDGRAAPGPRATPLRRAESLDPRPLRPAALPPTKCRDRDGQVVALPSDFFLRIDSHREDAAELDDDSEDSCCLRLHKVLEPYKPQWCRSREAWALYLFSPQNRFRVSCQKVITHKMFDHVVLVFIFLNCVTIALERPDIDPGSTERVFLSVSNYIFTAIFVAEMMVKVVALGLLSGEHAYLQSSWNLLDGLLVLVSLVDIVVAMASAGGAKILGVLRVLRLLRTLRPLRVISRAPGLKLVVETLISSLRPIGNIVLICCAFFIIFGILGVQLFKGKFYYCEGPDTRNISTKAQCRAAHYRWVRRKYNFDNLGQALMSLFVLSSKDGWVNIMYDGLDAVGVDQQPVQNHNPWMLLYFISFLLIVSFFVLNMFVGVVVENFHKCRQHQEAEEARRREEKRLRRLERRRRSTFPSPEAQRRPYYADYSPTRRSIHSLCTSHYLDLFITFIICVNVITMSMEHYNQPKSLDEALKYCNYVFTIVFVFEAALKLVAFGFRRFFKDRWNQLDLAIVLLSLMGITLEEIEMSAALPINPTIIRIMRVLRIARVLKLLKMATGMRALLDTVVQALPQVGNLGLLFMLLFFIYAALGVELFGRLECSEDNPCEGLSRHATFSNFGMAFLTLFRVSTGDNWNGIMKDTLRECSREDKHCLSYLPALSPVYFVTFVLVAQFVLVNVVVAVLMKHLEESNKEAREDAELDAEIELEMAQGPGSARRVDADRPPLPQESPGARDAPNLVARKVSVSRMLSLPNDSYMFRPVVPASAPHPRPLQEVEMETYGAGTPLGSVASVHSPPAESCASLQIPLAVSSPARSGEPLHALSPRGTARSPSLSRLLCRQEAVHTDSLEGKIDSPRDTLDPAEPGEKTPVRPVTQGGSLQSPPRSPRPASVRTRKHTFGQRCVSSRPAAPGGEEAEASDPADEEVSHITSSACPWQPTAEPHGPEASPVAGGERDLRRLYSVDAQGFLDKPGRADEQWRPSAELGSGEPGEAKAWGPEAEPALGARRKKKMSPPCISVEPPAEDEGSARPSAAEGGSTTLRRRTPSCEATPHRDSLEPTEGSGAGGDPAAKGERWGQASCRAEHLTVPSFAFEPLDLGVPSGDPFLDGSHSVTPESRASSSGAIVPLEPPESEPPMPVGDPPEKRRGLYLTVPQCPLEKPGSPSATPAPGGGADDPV

With Cc1ccc(NC(=O)c2cc(S(=O)(=O)N3CCCCC3)cs2)cc1 the EC50 [1] was 10.3 µM (active).
For Clc1c(OCCCn2ccnc2)ccc2ccccc12, the EC50 [2] was 0.708 µM (active), the EC50 [3] was > 60 µM (not active) and the CC50 [4] was 37.1 µM (active). For the same molecule, the CC50 [5] was > 20 µM (active) and the IC50 (cells) was 9.76 µM (active).
For Fc1ccccc1/C=N/Nc1nc(-c2ccccn2)nc2ccccc12, the IC50 [6] was over 32 µM, the AC50 (INS1) was 0.984 µM (active) and the EC50 (Beta-galactosidase) was > 31.5 µM (inactive). The EC50 [7] was 0.456 µM (active), the EC50 [2] was 0.357 µM (active) and the IC50 [8] was 6.19 µM (active). For the same molecule, the EC50 [3] was 54.9 µM (active) and the EC50 [9] was 1.03 µM (active).
In the case of Cc1noc(C)c1C(=O)NC(C)c1ccc2c(c1)OCO2 (stereo unspecified), the IC50 (Coagulation factor XII) is reported as > 50 µM (inactive).
For O=C(O)c1ccc2ncsc2c1, the IC50 (Hexokinase HKDC1) was 7.69 µM (active).
In the case of CCCCCCCn1c(NC(=O)CC)nc2ccccc21, the IC50 (SUMO-activating enzyme [10]) is reported as 7.82 µM (active), the AC50 [11] is reported as 34.3 µM (active) and the EC50 (Streptococcus) is reported as 10.1 µM (active). The IC50 (SUMO-activating enzyme [12]) was 1.62 µM (active), the EC50 [7] was 9.8 µM (active) and the AC50 [13] was 39.4 µM (active). The EC50 [14] was 2.13 µM (active), the EC50 [15] was 11.4 µM (active) and the AC50 [16] was > 70 µM (inactive). For the same molecule, the EC50 [9] was 13.8 µM (active) and the AC50 [17] was 47.3 µM (active).
With COC(=O)c1ccc(C(=O)OC)c(NC(=O)Nc2ccc3c(c2)OCO3)c1 the EC50 [18] was > 112 µM (not active), the IC50 [19] was > 100 µM (inactive) and the EC50 [20] was > 112 µM (not active).
In the case of O=C(CN1C(=O)C2C3C=CC(C3)C2C1=O)NCCC1=CCCCC1 (stereo unspecified), the IC50 (Coagulation factor XII) is reported as > 50 µM (inactive).
In the case of COc1ccc(CNCCC(c2ccccc2)c2ccc3c(c2)OCO3)cc1 (stereo unspecified), the AC50 (INS1) is reported as 9.28 µM (active), the EC50 [2] is reported as 3.27 µM (active) and the EC50 [3] is reported as > 60 µM (not active). The IC50 [21] was 0.965 µM (active).
With c1ccc(OCCSc2nc3ccccc3[nH]2)cc1 the EC50 [1] was 5.96 µM (active).
For COC(=O)C1=CN(C(C)C)C=C(C(=O)OC)C1c1cc2c(cc1Br)OCO2, the IC50 [21] was 4.97 µM (active).
In the case of N#CCc1ccc(NC(=O)Nc2cccc(Cl)c2)cc1, the EC50 [22] is reported as > 10 µM (not active) and the AC50 [23] is reported as 5.19 µM (active).
In the case of CCOC(=O)c1cnc(SCC(=O)c2ccccc2)nc1N, the EC50 [24] is reported as 0.195 µM (active) and the IC50 [19] is reported as > 100 µM (inactive).
